From article PMC9013686, “Inter-individual variation in chlorpyrifos toxicokinetics characterized by physiologically based kinetic (PBK) and Monte Carlo simulation comparing human liver microsome and Supersome™ cytochromes P450 (CYP)-specific kinetic data as model input” (Archives of Toxicology, 2022)

How the values were obtained:
Type in all cases: in vitro ADME
[1] = target: T1, CYP1A2 in pooled HLMs (Homo sapiens, UniProt P05177); experiment: Pooled HLM incubation with CYP1A2 probe substrate (ISEF determination); conditions: acetaminophen formation
T1 construct: the native CYPs present in HLM; tissue Corning (Amsterdam, The Netherlands); host or cells: pooled human liver microsomes, 150 donors, mixed gender
T1 sequence (P05177 1-516): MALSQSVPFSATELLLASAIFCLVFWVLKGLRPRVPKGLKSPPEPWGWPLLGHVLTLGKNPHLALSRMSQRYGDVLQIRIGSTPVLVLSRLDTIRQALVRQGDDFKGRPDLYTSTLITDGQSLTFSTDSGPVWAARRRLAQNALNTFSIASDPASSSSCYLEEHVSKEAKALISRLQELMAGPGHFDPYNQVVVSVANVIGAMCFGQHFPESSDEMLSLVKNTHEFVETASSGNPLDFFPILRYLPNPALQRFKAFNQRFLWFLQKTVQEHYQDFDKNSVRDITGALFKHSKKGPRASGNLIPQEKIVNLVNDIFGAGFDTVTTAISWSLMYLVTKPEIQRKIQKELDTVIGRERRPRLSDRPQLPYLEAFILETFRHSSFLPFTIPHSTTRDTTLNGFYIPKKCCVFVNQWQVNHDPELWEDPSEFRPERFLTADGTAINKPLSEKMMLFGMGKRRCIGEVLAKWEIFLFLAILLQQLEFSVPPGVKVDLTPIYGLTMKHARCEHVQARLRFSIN
Protocol: (§1) To normalize for differences in intrinsic CYP activity between Supersome™ and pooled HLMs and enable scaling of the activities to the in vivo situation, CYP-specific ISEF values need to be established. […] The incubation method was similar as used for the CPF kinetic incubation assay described above, except that certain incubation conditions were replaced by the conditions listed in Table 1. The samples obtained were analyzed by UPLC-PDA for acetaminophen, 4-hydroxymephenytoin, and 6β-hydroxytestosterone formation catalyzed by 1A2, 2C19 and 3A4, or LC–MS/MS for (±)-hydroxybupropion formation catalyzed by 2B6.
(§2) As mentioned before, the in vitro apparent kinetic parameters (Vmax and Km) for pathway 1 and pathway 2 in the HLM-based approach, and pathway 3 in both approaches were all obtained directly from reported studies using pooled HLMs (Buratti et al. [2003]; Sams et al. [2004]; Zhao et al. [2019]). Therefore, no extra calculations were required to define these parameters. […] It should be noted that the kinetic parameters for pathway 4 used in the two approaches were calculated as mean of the kinetic parameters (Vmax and Km) obtained using 25 individual HP samples (with correction for total protein concentration of each plasma sample).

[2] = target: CYP3A4 (Homo sapiens, UniProt P08684); experiment: Supersome CYP3A4 kinetic incubations; design: purchased Corning (Amsterdam, The Netherlands); host or cells: baculovirus-transfected insect cells
Chain of CYP3A4 (P08684 2-503 limits assumed): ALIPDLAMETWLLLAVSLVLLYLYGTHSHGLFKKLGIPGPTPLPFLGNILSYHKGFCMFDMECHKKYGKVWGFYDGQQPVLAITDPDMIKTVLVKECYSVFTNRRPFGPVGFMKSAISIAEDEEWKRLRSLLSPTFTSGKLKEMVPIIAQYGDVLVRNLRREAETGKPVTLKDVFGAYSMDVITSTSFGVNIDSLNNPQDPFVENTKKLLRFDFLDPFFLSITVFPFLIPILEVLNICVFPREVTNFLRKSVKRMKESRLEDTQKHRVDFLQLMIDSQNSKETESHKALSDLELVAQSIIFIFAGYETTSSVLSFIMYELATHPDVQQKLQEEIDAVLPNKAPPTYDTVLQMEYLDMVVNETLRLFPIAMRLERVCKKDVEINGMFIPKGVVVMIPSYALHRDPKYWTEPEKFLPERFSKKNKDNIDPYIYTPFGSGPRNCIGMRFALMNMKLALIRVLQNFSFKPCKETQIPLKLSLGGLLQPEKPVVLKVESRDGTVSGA
Protocol: The final incubations were carried out in 50 mM Tris–HCl (pH 7.4) containing 5 mM MgCl2, 1 mM EDTA (as an A-esterase PON1 inhibitor) (Bizoń and Milnerowicz [2018]), 50 µM iso-OMPA (as a B-esterases inhibitor) (Lane et al. [2006]), Supersome™ isoform (at final concentration of 0.005 nmol CYP/ml for 1A2, 0.001 nmol CYP/ml for 2B6, 0.01 nmol CYP/ml for 2C19, and 0.01 nmol CYP/ml for 3A4) and CPF at different final concentrations (0.05, 0.1, 0.25, 0.5, 1, 5 and 10 µM for 1A2, 0.05, 0.1, 0.25, 0.5, 1, 5 10 and 25 µM for 2B6, 1, 2.5, 5, 10, 25 and 50 µM for 2C19, and 0.5, 1, 2.5, 5, 10, 25 and 50 µM for 3A4), which were added from 100 times concentrated stock solutions in ACN. After 1 min preincubation in a 37 °C water bath, 5 µl NADPH (final concentration 1 mM) was added to the incubation system. Control incubations were performed by replacing NADPH with the same amount of Tris–HCl (pH 7.4). The total volume of the incubation mixtures was 200 µl. The incubations lasted for 2 min at 37 °C and were terminated by addition of 50 µl ice cold ACN and subsquently put on ice. After that, samples were centrifuged at 16,000 g (4 ℃) for 5 min and supernatants of samples were separated into two equal portions for Ultra-Performance Liquid Chromatography-Photodiode Array (UPLC-PDA) and Liquid Chromatography Mass Spectrometry (LC–MS/MS) analysis, respectively.
as §1
As mentioned before, the in vitro apparent kinetic parameters (Vmax and Km) for pathway 1 and pathway 2 in the HLM-based approach, and pathway 3 in both approaches were all obtained directly from reported studies using pooled HLMs (Buratti et al. [2003]; Sams et al. [2004]; Zhao et al. [2019]). Therefore, no extra calculations were required to define these parameters. The kinetic parameters for the ISEF calculation, pathway 1 and 2 in the Supersome™-based approach, and pathway 4 in both approaches (25 individuals) were all obtained by fitting the experimental data to the Michaelis–Menten model using GraphPad (GraphPad Prism 5.0 software, San Diego, CA, USA). It should be noted that the kinetic parameters for pathway 4 used in the two approaches were calculated as mean of the kinetic parameters (Vmax and Km) obtained using 25 individual HP samples (with correction for total protein concentration of each plasma sample).
The in vivo Kmi values were assumed to be equal to the apparent Kmi(app) values (µM) obtained in the in vitro incubations, while the in vivo Vmaxi for each CYP isoform was derived from their corresponding apparent CYP isoform Vmaxi(app) (pmol/min/pmolCYP) using Eq. 3:3 Vmaxi=Vmaxiapp×CYPiabundance×ISEF×60×MPL×1000×VL/1,000,000,

[3] = target: T2, CYP3A4 in pooled HLMs (Homo sapiens, UniProt P08684); experiment: Pooled HLM incubation with CYP3A4 probe substrate (ISEF determination); conditions: 6β-hydroxytestosterone formation
T2 construct: the native CYPs present in HLM; tissue Corning (Amsterdam, The Netherlands); host or cells: pooled human liver microsomes, 150 donors, mixed gender
T2 sequence (P08684 2-503): as the sequence (P08684 2-503 limits assumed) above
Protocol: as §1, §2

CCOc1ccc(NC(C)=O)cc1 [Phenacetin, phenacetin]
Vmax (pooled HLMs) [1]: 0.15 nmol/min/mg microsomal protein

C[C@]12CC[C@H]3[C@@H](CCC4=CC(=O)CC[C@@]43C)[C@@H]1CC[C@@H]2O [Testosterone, testosterone, reference compound]
Vmax (Supersome) ([2]; 6β-hydroxytestosterone formation, Supersome CYP3A4): 1179 pmol/min/pmol CYP | ISEF ([2]; CYP3A4, calculated on the basis of Eq. 4 from probe substrate Vmax in pooled HLMs and Supersome): 0.11 | Vmax (pooled HLMs) [3]: 17.29 nmol/min/mg microsomal protein
